Test results published in publication PMC12693701, “Glucosinolate-Derived Metabolites from Barbarea vulgaris (Brassicaceae): Evaluation of Antimicrobial, Antioxidant, and Anti-Inflammatory Potentials” (Molecules, 2025).
In brackets after ≈: the same amount, converted by molar mass. Read-outs that look alike come from different tables or passages of the source.

Experiments:
[1] = test system: B. subtilis ATCC 6633; experiment: Microdilution MIC/MMC with resazurin; format: cell-based, Bacillus subtilis; conditions: for MIC: Bacillus subtilis, ATCC6633
Description: (§1) The antimicrobial activity was evaluated against 15 microorganisms. This included 11 bacterial strains: four standard strains (Staphylococcus aureus ATCC 25923, Bacillus subtilis ATCC 6633, Bacillus pumilus NCTC 8241, and Escherichia coli ATCC 25922) and six clinical or environmental isolates (Staphylococcus aureus, Escherichia coli, Bacillus cereus, Proteus mirabilis, Salmonella enterica, and Klebsiella pneumoniae). One probiotic strain, Bifidobacterium animalis subsp. lactis was tested. In addition, four fungal strains, Candida albicans ATCC 10231, Trichoderma viride ATCC 13233, Aspergillus flavus ATCC 9170, and Fusarium solani ATCC 11712 were tested. The bacterial strains were kept in glycerol stock at −80 °C and the fungal strains in paraffin oil stock at 4 °C.
(§2) Bacterial and yeast suspensions were prepared using the direct colony method, as previously described by Andrews. The turbidity of the initial suspensions was adjusted to match the 0.5 McFarland standard using a densitometer (Biosan, Riga, Latvia), corresponding to approximately 10^8 colony-forming units (CFU)/mL for bacterial cells and 10^6 CFU/mL for yeast cells. Subsequently, 1:100 dilutions of the initial suspensions were prepared in sterile 0.85% saline. Fungal spore suspensions were obtained by gently harvesting spores from agar slopes containing mature mycelial growth. The collected spore suspensions were then diluted 1:1000 in sterile 0.85% saline prior to use.
(§3) Antimicrobial activity was evaluated by determining the minimum inhibitory concentration (MIC) and minimum microbicidal concentration (MMC) using the microdilution plate method with resazurin as an indicator [28]. In the 96-well plates, 100 μL of Mueller–Hinton broth (Torlak, Belgrade, Serbia) for bacterial testing and Sabouraud broth (Torlak, Belgrade, Serbia) for fungal testing were dispensed into each well. The compounds under investigation were initially dissolved in a 10% dimethyl sulfoxide (DMSO) solution, followed by dilution in sterile distilled water, resulting in a working compound solution containing 1% DMSO. A 100 μL aliquot of the stock solution of the tested compound was added to the first row, and twofold serial dilutions were then carried out using a multichannel pipette. The resulting concentration range was from 5 to 0.039 mg/mL. The inoculated microtiter plates were incubated at 37 °C for 24 h for bacteria, at 28 °C for 48 h for yeasts, and at 28 °C for 72 h for molds.
(§4) Each test also included growth control and sterility control. All tests were conducted in duplicate. MIC was defined as the lowest concentration of tested compounds that prevented resazurin color change from blue to pink. For molds, MIC values of the tested compound were determined as the lowest concentration that inhibited visible mycelia growth. MMC was determined by inoculation of the nutrient agar medium by plating […] of samples from wells, where no indicator color change was recorded. At the end of the incubation period, the lowest concentration with no growth (no colony) was defined as MMC.
(§5) Doxycycline, ampicillin and amphotericin B (- Sigma-Aldrich, St. Louis, MO, USA) and ketoconazole (Hemofarm A.D., Vršac, Serbia) were dissolved in a nutrient liquid medium. Doxycycline is a broad-spectrum antibiotic effective against both aerobic and anaerobic Gram-positive and Gram-negative bacteria. Ampicillin, a beta-lactam antibiotic, primarily targets Gram-positive bacteria but also some Gram-negative strains. Amphotericin B is an antifungal drug often used for serious systemic fungal infections and is one of the effective treatments for fungal infections caused by Aspergillus sp. Ketoconazole is an antifungal agent used to inhibit the growth of Candida species.

[2] = test system: E. coli ATCC 25922; experiment: Microdilution MIC/MMC with resazurin; format: cell-based, Escherichia coli; conditions: for MIC: Escherichia coli, ATCC25922
Description: as §1, §2, §3, §4, §5

[3] = test system: E. coli; experiment: Microdilution MIC/MMC with resazurin; format: cell-based, Escherichia coli; conditions: E. coli isolate, compounds 1–8
Description: as §1, §2, §3, §4, §5

[4] = test system: C. albicans ATCC 10231; experiment: Microdilution MIC/MMC with resazurin; format: cell-based, Candida albicans; conditions: for MIC: Candida albicans, ATCC10231
Description: as §1, §2, §3, §4, §5

[5] = test system: F. solani ATCC 11712; experiment: Microdilution MIC/MMC; format: cell-based, Fusarium solani
Description: as §1, §2, §3, §4, §5

[6] = molecular target: T1, Type I-B soybean lipoxygenase (Glycine max, UniProt P08170); experiment: LOX inhibition assay; format: biochemical; conditions: for inhibition at 100 µM: read-out: Percentage of LOX Inhibition
T1 sequence (P08170 1-839): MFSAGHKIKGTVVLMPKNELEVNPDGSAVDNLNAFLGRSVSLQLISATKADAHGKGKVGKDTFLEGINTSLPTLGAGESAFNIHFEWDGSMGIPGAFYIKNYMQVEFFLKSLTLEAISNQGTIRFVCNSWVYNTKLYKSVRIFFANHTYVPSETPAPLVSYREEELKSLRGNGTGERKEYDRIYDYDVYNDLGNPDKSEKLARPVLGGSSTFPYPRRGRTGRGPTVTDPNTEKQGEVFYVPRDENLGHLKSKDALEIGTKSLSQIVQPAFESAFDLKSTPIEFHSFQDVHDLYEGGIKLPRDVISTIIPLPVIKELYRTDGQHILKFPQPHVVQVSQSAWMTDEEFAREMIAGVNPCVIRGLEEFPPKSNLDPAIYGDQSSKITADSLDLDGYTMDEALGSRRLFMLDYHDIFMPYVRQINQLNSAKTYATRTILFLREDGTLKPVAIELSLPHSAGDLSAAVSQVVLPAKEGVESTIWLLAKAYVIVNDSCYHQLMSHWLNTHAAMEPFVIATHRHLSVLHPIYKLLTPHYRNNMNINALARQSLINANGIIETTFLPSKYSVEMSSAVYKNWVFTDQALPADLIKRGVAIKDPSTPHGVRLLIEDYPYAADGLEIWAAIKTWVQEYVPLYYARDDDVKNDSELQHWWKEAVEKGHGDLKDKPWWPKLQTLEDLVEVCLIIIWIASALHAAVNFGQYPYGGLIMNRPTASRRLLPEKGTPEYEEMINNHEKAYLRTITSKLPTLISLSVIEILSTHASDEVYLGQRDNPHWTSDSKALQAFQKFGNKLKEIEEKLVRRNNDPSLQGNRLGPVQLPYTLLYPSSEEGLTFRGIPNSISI
Description: Type I-B soybean lipoxygenase is a commonly used enzyme for studying the anti-inflammatory properties of various compounds [19]. The lipoxygenase (LOX) inhibition assay measures the enzyme’s ability to convert sodium linoleate to 13-hydroperoxylinoleic acid. The inhibition of the enzyme by the investigated compounds was determined by measuring the absorbance at 234 nm for each prepared sample. Specifically, the test compound, Tris buffer, an enzyme solution (5 × 10^3 units/mL in saline), and sodium linoleate (3 mM in Tris buffer, pH 9), were added to a UV cuvette, and the absorbance was recorded. […] All measurements were performed in triplicate.

[7] = B. subtilis ATCC 6633, compounds 1–8
[8] = B. subtilis ATCC 6633, compounds 1–8, read-out: MIC
[9] = E. coli ATCC 25922, compounds 1–8
[10] = E. coli ATCC 25922, compounds 1–8, read-out: MIC
[11] = Escherichia coli, read-out: MIC
[12] = C. albicans ATCC 10231, compounds 1–8
[13] = C. albicans ATCC 10231, compounds 1–8, read-out: MIC
[14] = F. solani ATCC 11712, compounds 1–8
[15] = Fusarium solani, ATCC11712, F. solani ATCC 11712, compounds 1–8, read-out: MIC

| SMILES | MMC [1, 7] [mg/mL] | MIC [1, 8] [µg/mL] | MMC [2, 9] [mg/mL] | MIC [2, 10] [µg/mL] | MMC [3] [mg/mL] | MIC [3, 11] [µg/mL] | MMC [4, 12] [mg/mL] | MIC [4, 13] [µg/mL] | MMC [5, 14] [mg/mL] | MIC [5, 15] [µg/mL] | inhibition at 100 µM ([6]; 100 µM, mean ± SD) [%] | IC50 ([6]; mean ± SD) [µM] | MIC [1] [µg/mL] | MIC [2] [µg/mL] | MIC [3] [µg/mL] | MIC ([3]; Escherichia coli) [µg/mL] | MIC [4] [µg/mL] | MIC [5, 14] [µg/mL] | MIC ([5]; Fusarium solani, ATCC11712) [µg/mL] | inhibition at 100 µM [6] [%] |
| --- | --- | --- | --- | --- | --- | --- | --- | --- | --- | --- | --- | --- | --- | --- | --- | --- | --- | --- | --- | --- |
| S=C1NC[C@H](c2ccccc2)O1 [Compound 5, (S)-5-phenyl-1,3-oxazolidine-2-thione] | >5 | > 5000 | 5 | 5000 (≈ 27.9 mM) | 5 | 5000 (≈ 27.9 mM) | >5 | 5000 (≈ 27.9 mM) | >5 | 5000 (≈ 27.9 mM) | 40 ± 0.5 | 123 ± 1.5 | – | – | – | – | – | – | – | – |
| O=C1NCC(c2ccccc2)S1 (centres unmarked) [Compound 6, 5-phenyl-1,3-thiazolidin-2-one] | >5 | > 5000 | >5 | > 5000 | >5 | > 5000 | >5 | > 5000 | >5 | > 5000 | 34.6 ± 0.4 | – | – | – | – | – | – | – | – | – |
| O=C1NCC(c2ccccc2)O1 (centres unmarked) [Compound 7, 5-Phenyl-1,3-oxazolidin-2-one] | 5 | 5000 (≈ 30.6 mM) | 2.5 | 1250 (≈ 7.66 mM) | 2.5 | 1250 (≈ 7.66 mM) | 5 | 2500 (≈ 15.3 mM) | 2.5 | 2500 (≈ 15.3 mM) | 18.3 ± 0.3 | – | – | – | – | – | – | – | – | – |
| Oc1ccc(CCN=C=S)cc1 [Compound 8, 2-(4-hydroxyphenyl)ethyl isothiocyanate] | >5 | – | 0.312 | – | 0.625 | – | 2.5 | – | <0.039 | – | – | – | 312 (≈ 1.74 mM) | 78 (≈ 0.435 mM) | <39 | 39 (≈ 0.218 mM) | 2500 (≈ 13.9 mM) | <39 | < 39 | 21.2 ± 0.3 |
